Measured values as given in the supplement of paper PMC10307832.

Columns and labels:
Assay in all cases: relative viability (nuclei count vs DMSO), 5 days (fraction); higher = more cells survive
[1] = compound: C=CC(=O)Nc1cc(-n2c(=O)ccc3cnc4ccc(-c5ccc(NS(C)(=O)=O)cc5)cc4c32)ccc1C [BMX-IN-1] + Nc1ncn([C@H]2C[C@H](O)[C@@H](CO)O2)c(=O)n1 [Decitabine] (partner 2 µM)
How it was run: (§1)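 Relative viability divides the nuclei count in treated wells by that in vehicle wells. Lung cancer cell lines were seeded in 1536-well plates, dosed by pin tool the next day, and fixed and stained after 5 days in one step with final 0.05% Triton X-100, 1% formaldehyde and 1 ug/ml Hoechst. Dosing was a single drug or a fixed anchor-drug dose plus five library-drug doses (not always all listed) in √10 steps, and values are medians of duplicate plates imaged at 4×.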

[2] = compound: C=CC(=O)N1CCC[C@@H](n2nc(-c3ccc(Oc4ccccc4)cc3)c3c(N)ncnc32)C1 [Ibrutinib] + CS(=O)(=O)CCNCc1ccc(-c2ccc3ncnc(Nc4ccc(OCc5cccc(F)c5)c(Cl)c4)c3c2)o1 [Lapatinib] (partner 2 µM)
How it was run: as §1

[3] = compound: C=CC(=O)Nc1cc(-n2c(=O)ccc3cnc4ccc(-c5ccc(NS(C)(=O)=O)cc5)cc4c32)ccc1C [BMX-IN-1] + Cc1cc(Nc2cc(N3CCN(C)CC3)nc(Sc3ccc(NC(=O)C4CC4)cc3)n2)n[nH]1 [Tozasertib] (partner 0.1 µM)
How it was run: as §1

[4] = compound: C=CCc1cccc(/C=N/NC(=O)CN2CCN(Cc3ccccc3)CC2)c1O [PAC-1] + O=C(CCCCCCC(=O)Nc1ccccc1)NO [Vorinostat] (partner 1 µM)
How it was run: as §1

Cell Line | relative viability ([1]; first compound 0.02 µM) | relative viability ([1]; first compound 0.2 µM) | relative viability ([1]; first compound 0.6325 µM) | relative viability ([1]; first compound 2 µM) | relative viability ([2]; first compound 0.005 µM) | relative viability ([2]; first compound 0.01581 µM) | relative viability ([2]; first compound 0.05 µM) | relative viability ([2]; first compound 0.1581 µM) | relative viability ([2]; first compound 0.5 µM) | relative viability ([3]; first compound 0.02 µM) | relative viability ([3]; first compound 0.2 µM) | relative viability ([3]; first compound 0.6325 µM) | relative viability ([3]; first compound 2 µM) | relative viability ([4]; first compound 0.02 µM) | relative viability ([4]; first compound 0.06325 µM) | relative viability ([4]; first compound 0.2 µM) | relative viability ([4]; first compound 2 µM)
LU99A | 0.922 | 0.855 | 1.13 | 0.882 | 0.936 | 1.08 | 1.1 | 1.04 | 0.995 | 0.275 | 0.294 | 0.275 | 0.293 | 0.502 | 0.448 | 0.429 | 0.502
LXF-289 | 0.388 | 0.338 | 0.374 | 0.41 | 0.918 | 0.903 | 0.932 | 0.88 | 0.923 | 0.212 | 0.197 | 0.187 | 0.146 | 0.793 | 0.765 | 0.731 | 0.732
NCI-H23 | 0.326 | 0.295 | 0.338 | 0.296 | 0.943 | 1.19 | 1.18 | 1.15 | – | 0.331 | 0.367 | 0.586 | 0.34 | 0.692 | 0.567 | 0.651 | 0.751
NCI-H322M | 0.604 | 0.699 | 0.722 | 0.661 | 0.527 | 0.652 | 0.621 | 0.512 | 0.585 | 0.514 | 0.548 | 0.475 | 0.401 | 0.749 | 0.907 | 1.04 | 0.828
NCI-H358 | 0.181 | 0.2 | 0.239 | 0.214 | 0.403 | 0.466 | 0.475 | 0.406 | 0.43 | 0.112 | 0.108 | 0.104 | 0.11 | 0.645 | 0.665 | 0.706 | 0.674
NCI-H460 | 0.568 | 0.657 | 0.478 | 0.428 | 1.18 | 0.892 | 0.96 | 0.94 | 1.11 | 0.525 | 0.796 | 0.531 | 0.569 | 0.755 | 0.75 | 0.642 | 0.707
NCI-H520 | 0.549 | 0.494 | 0.449 | 0.529 | 0.788 | 0.789 | 0.934 | 0.907 | 0.78 | 0.494 | 0.451 | 0.43 | 0.429 | 0.57 | 0.722 | 0.687 | 0.678
NCI-H596 | 1.04 | 1.14 | 0.945 | 1.2 | 1.86 | 1.1 | 1.02 | 0.988 | 1.08 | 1.07 | 0.932 | 0.819 | 0.959 | 0.619 | 0.603 | 0.643 | 0.741
NCI-H647 | 0.407 | 0.502 | 0.479 | 0.462 | 0.799 | 0.934 | 1.06 | 1.11 | 1.19 | 0.283 | 0.0553 | 0.394 | 0.232 | 0.28 | 0.67 | 0.706 | 0.514
NCI-H650 | 0.321 | 0.303 | 0.318 | 0.346 | – | 0.867 | – | 1 | 0.883 | 0.753 | 0.838 | 0.739 | 0.764 | 0.494 | 0.36 | 0.442 | 0.395
NCI-H661 | 0.617 | 0.528 | 0.634 | 0.525 | 0.414 | 0.504 | 0.489 | 0.571 | 0.426 | 0.378 | 0.358 | 0.352 | 0.348 | 0.786 | 0.784 | 0.743 | 0.676
NCI-H727 | 0.668 | 0.917 | 0.777 | 1.01 | 0.734 | 0.735 | 1.2 | 0.496 | 0.852 | 0.691 | 0.646 | 0.572 | 0.597 | 1.09 | 1.1 | 1.06 | 1.13
NCI-H838 | 0.5 | 0.439 | 0.466 | 0.444 | 0.796 | 0.893 | 1 | 0.894 | 1.08 | 0.322 | 0.318 | 0.279 | 0.313 | 0.68 | 0.72 | 0.782 | 0.745
NCI-H1355 | 0.357 | 0.368 | 0.355 | 0.401 | – | 0.975 | 1.07 | 0.92 | 0.963 | 0.607 | 0.664 | 0.532 | 0.518 | 0.61 | 0.625 | 0.572 | 0.665
NCI-H1395 | 0.781 | 0.695 | 0.677 | 0.769 | 1.1 | 1.04 | 1.04 | 0.869 | 1.05 | 0.832 | 0.793 | 0.701 | 0.715 | 0.704 | 0.747 | 0.784 | 0.623
NCI-H1437 | 0.672 | 0.603 | 0.623 | 0.575 | 0.799 | 0.677 | 0.775 | 0.604 | 0.893 | 0.497 | 0.43 | 0.38 | 0.414 | 0.831 | 0.816 | 0.717 | 0.563
NCI-H1650 | 0.438 | 0.385 | 0.473 | 0.548 | 0.685 | 0.734 | 0.843 | 0.682 | 0.844 | 0.374 | 0.503 | 0.364 | 0.41 | 0.507 | 0.672 | 0.52 | 0.418
NCI-H1651 | 0.5 | 0.667 | 0.722 | 0.593 | 0.699 | 0.756 | 0.796 | 0.723 | 0.906 | 0.848 | 1 | 0.735 | 0.731 | 0.544 | 0.531 | 0.489 | 0.588
NCI-H1666 | 0.673 | 0.746 | 0.839 | 0.716 | 0.722 | 0.583 | 0.814 | 0.749 | 0.761 | 0.595 | 0.57 | 0.624 | 0.593 | 1.08 | 1.03 | 1 | 1.09
